Measured values as given in patent US12516044B2, “Heterocyclic compounds as immunomodulators” (Incyte Corporation, priority 2015, dated 2026).

The molecules below were run against T1, PD-1/PD-L1 protein/protein interaction (Homo sapiens, UniProt Q9NZQ7) (assay: PD-1/PD-L1 Homogeneous Time-Resolved Fluorescence (HTRF) Binding Assay). Conditions: recombinant human PD-L1 (19-238) His-tag and human PD-1 (25-167) Fc tag; 25° C., PBS pH 7.4.
T1 construct: Recombinant human PD-L1 protein (19-238) with a His-tag at the C-terminus; purchased AcroBiosystems PD1-H5229 (PD-L1-His); PD1-H5257 (PD-1-Fc)
Experimental: Example A. PD-1/PD-L1 Homogeneous Time-Resolved Fluorescence (HTRF) Binding Assay
The assays were conducted in a standard black 384-well polystyrene plate with a final volume of 20 μL. Inhibitors were first serially diluted in DMSO and then added to the plate wells before the addition of other reaction components. The final concentration of DMSO in the assay was 1%. The assays were carried out at 25° C. in the PBS buffer (pH 7.4) with 0.05% Tween-20 and 0.1% BSA. Recombinant human PD-L1 protein (19-238) with a His-tag at the C-terminus was purchased from AcroBiosystems (PD1-H5229). Recombinant human PD-1 protein (25-167) with Fc tag at the C-terminus was also purchased from AcroBiosystems (PD1-H5257). PD-L1 and PD-1 proteins were diluted in the assay buffer and 10 μL was added to the plate well. Plates were centrifuged and proteins were preincubated with inhibitors for 40 minutes. The incubation was followed by the addition of […] of HTRF detection buffer supplemented with Europium cryptate-labeled anti-human IgG (PerkinElmer-AD0212) specific for Fc and anti-His antibody conjugated to SureLight®-Allophycocyanin (APC, PerkinElmer-AD0059H). After centrifugation, the plate was incubated at 25° C. for 60 min. before reading on a PHERAstar FS plate reader (665 nm/620 nm ratio). Final concentrations in the assay were […] PD1, 10 nM PD-L1, 1 nM europium anti-human IgG and 20 nM anti-His-Allophycocyanin. IC50 determination was performed by fitting the curve of percent control activity versus the log of the inhibitor concentration using the GraphPad Prism 5.0 software.

T1 sequence (Q9NZQ7 19-238): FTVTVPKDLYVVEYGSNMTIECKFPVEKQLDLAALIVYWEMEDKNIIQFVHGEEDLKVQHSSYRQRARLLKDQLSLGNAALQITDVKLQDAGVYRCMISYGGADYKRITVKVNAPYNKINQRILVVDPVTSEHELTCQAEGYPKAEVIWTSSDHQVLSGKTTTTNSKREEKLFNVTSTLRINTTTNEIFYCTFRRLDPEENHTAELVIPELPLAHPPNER

Structure (SMILES)	IC50 [nM]
Cc1c(NC(=O)c2ccc(CN3CCCC[C@H]3C(=O)O)cn2)cccc1-c1ccccc1 [Example 1, (2S)-1-[(6-{[(2-methylbiphenyl-3-yl)amino]carbonyl}pyridin-3-yl)methyl]piperidine-2-carboxylic Acid]	10 to 100
Cc1c(NC(=O)c2ccc(CNCCO)cn2)cccc1-c1ccccc1 [Example 2, 5-{[(2-hydroxyethyl)amino]methyl}-N-(2-methylbiphenyl-3-yl)pyridine-2-carboxamide]	10 to 100
Cc1cc(CN2CCCC[C@H]2C(=O)O)cnc1C(=O)Nc1cccc(-c2ccccc2)c1C [Example 3, (2S)-1-[(5-methyl-6-{[(2-methylbiphenyl-3-yl)amino]carbonyl}pyridin-3-yl)methyl]piperidine-2-carboxylic Acid]	100 to 1000
Cc1cc(CNCCO)cnc1C(=O)Nc1cccc(-c2ccccc2)c1C [Example 4, 5-{[(2-hydroxyethyl)amino]methyl}-3-methyl-N-(2-methylbiphenyl-3-yl)pyridine-2-carboxamide]	10 to 100
Cc1c(NC(=O)c2ncc(CN3CCCC[C@H]3C(=O)O)cn2)cccc1-c1ccccc1 [Example 5, (2S)-1-[(2-{[(2-methylbiphenyl-3-yl)amino]carbonyl}pyrimidin-5-yl)methyl]piperidine-2-carboxylic Acid]	100 to 1000
Cc1c(NC(=O)c2ncc(CNCCO)cn2)cccc1-c1ccccc1 [Example 6, 5-{[(2-hydroxyethyl)amino]methyl}-N-(2-methylbiphenyl-3-yl)pyrimidine-2-carboxamide]	10 to 100
N#Cc1c(NC(=O)c2ccc(CN3CCCC[C@H]3C(=O)O)cn2)cccc1-c1ccccc1 [Example 7, (2S)-1-[(6-{[(2-cyanobiphenyl-3-yl)amino]carbonyl}pyridin-3-yl)methyl]piperidine-2-carboxylic Acid]	10 to 100
N#Cc1c(NC(=O)c2ccc(CNCCO)cn2)cccc1-c1ccccc1 [Example 8, N-(2-cyanobiphenyl-3-yl)-5-{[(2-hydroxyethyl)amino]methyl}pyridine-2-carboxamide]	≤ 10
N#Cc1c(NC(=O)c2ccc(CN3CCCC[C@H]3C(=O)O)cn2)cccc1-c1ccc2c(c1)OCCO2 [Example 9, (2S)-1-{[6-({[2-cyano-3-(2,3-dihydro-1,4-benzodioxin-6-yl)phenyl]amino}carbonyl)pyridin-3-yl]methyl}piperidine-2-carboxylic Acid]	10 to 100
N#Cc1c(NC(=O)c2ccc(CNCCO)cn2)cccc1-c1ccc2c(c1)OCCO2 [Example 10, N-(2-cyano-3-(2,3-dihydrobenzo[b][1,4]dioxin-6-yl)phenyl)-5-((2-hydroxyethylamino)methyl)picolinamide]	≤ 10
Cc1c(NC(=O)c2cnc(CNCCO)cn2)cccc1-c1ccccc1 [Example 11, 5-{[(2-hydroxyethyl)amino]methyl}-N-(2-methylbiphenyl-3-yl)pyrazine-2-carboxamide]	10 to 100
Cc1c(NC(=O)c2ccc(CNCCO)nn2)cccc1-c1ccccc1 [Example 12, 6-{[(2-hydroxyethyl)amino]methyl}-N-(2-methylbiphenyl-3-yl)pyridazine-3-carboxamide]	10 to 100
Cc1nc(C(=O)Nc2cccc(-c3ccccc3)c2C)ccc1CN1CCCC[C@H]1C(=O)O [Example 13, (2S)-1-[(2-methyl-6-{[(2-methylbiphenyl-3-yl)amino]carbonyl}pyridin-3-yl)methyl]piperidine-2-carboxylic Acid]	100 to 1000
Cc1nc(C(=O)Nc2cccc(-c3ccccc3)c2C)ccc1CNCCO [Example 14, 5-{[(2-hydroxyethyl)amino]methyl}-6-methyl-N-(2-methylbiphenyl-3-yl)pyridine-2-carboxamide]	10 to 100
Cc1c(NC(=O)c2ncc(CN3CCCC[C@H]3C(=O)O)cc2Cl)cccc1-c1ccccc1 [Example 15, (2S)-1-[(5-chloro-6-{[(2-methylbiphenyl-3-yl)amino]carbonyl}pyridin-3-yl)methyl]piperidine-2-carboxylic Acid]	100 to 1000
Cc1c(NC(=O)c2ncc(CNCCO)cc2Cl)cccc1-c1ccccc1 [Example 16, 3-chloro-5-{[(2-hydroxyethyl)amino]methyl}-N-(2-methylbiphenyl-3-yl)pyridine-2-carboxamide]	10 to 100
Cc1c(NC(=O)c2ncc(CNCCO)cc2F)cccc1-c1ccccc1 [Example 17, 3-fluoro-5-{[(2-hydroxyethyl)amino]methyl}-N-(2-methylbiphenyl-3-yl)pyridine-2-carboxamide]	10 to 100
Cc1c(NC(=O)c2cc(OCc3cccc(C#N)c3)c(CNCCO)cn2)cccc1-c1ccccc1 [Example 18, 4-[(3-cyanobenzyl)oxy]-5-{[(2-hydroxyethyl)amino]methyl}-N-(2-methylbiphenyl-3-yl)pyridine-2-carboxamide]	10 to 100

Structure (SMILES)	IC50 [nM]
Cc1c(NC(=O)c2cc(OCc3cccnc3)c(CNCCO)cn2)cccc1-c1ccccc1 [Example 19, 5-{[(2-hydroxyethyl)amino]methyl}-N-(2-methylbiphenyl-3-yl)-4-(pyridin-3-ylmethoxy)pyridine-2-carboxamide]	10 to 100
Cc1c(NC(=O)c2cc(OCc3ccccn3)c(CNCCO)cn2)cccc1-c1ccccc1 [Example 20, 5-{[(2-hydroxyethyl)amino]methyl}-N-(2-methylbiphenyl-3-yl)-4-(pyridin-2-ylmethoxy)pyridine-2-carboxamide]	10 to 100
Cc1c(NC(=O)c2ncc(CNCCO)cc2N(C)C)cccc1-c1ccccc1 [Example 21, 3-(dimethylamino)-5-{[(2-hydroxyethyl)amino]methyl}-N-(2-methylbiphenyl-3-yl)pyridine-2-carboxamide]	100 to 1000
Cc1c(NC(=O)c2cc(CNCCO)ccn2)cccc1-c1ccccc1 [Example 23, 4-{[(2-hydroxyethyl)amino]methyl}-N-(2-methylbiphenyl-3-yl)pyridine-2-carboxamide]	10 to 100
Cc1c(NC(=O)c2cc(OCc3cccnc3)ncn2)cccc1-c1ccccc1 [Example 24, N-(2-methylbiphenyl-3-yl)-6-(pyridin-3-ylmethoxy)pyrimidine-4-carboxamide]	100 to 1000
Cc1c(NC(=O)c2cc(C#N)ccn2)cccc1-c1ccccc1 [Example 25, 4-cyano-N-(2-methylbiphenyl-3-yl)pyridine-2-carboxamide]	10 to 100
Cc1c(NC(=O)c2cnccn2)cccc1-c1ccccc1 [Example 26, N-(2-methylbiphenyl-3-yl)pyrazine-2-carboxamide]	10 to 100
Cc1c(NC(=O)c2ccncn2)cccc1-c1ccccc1 [Example 27, N-(2-methylbiphenyl-3-yl)pyrimidine-4-carboxamide]	10 to 100
Cc1c(NC(=O)c2ncccn2)cccc1-c1ccccc1 [Example 28, N-(2-methylbiphenyl-3-yl)pyrimidine-2-carboxamide]	100 to 1000
Cc1c(NC(=O)c2cccnn2)cccc1-c1ccccc1 [Example 29, N-(2-methylbiphenyl-3-yl)pyridazine-3-carboxamide]	100 to 1000
Cc1c(NC(=O)c2ccnc(OCc3cccnc3)n2)cccc1-c1ccccc1 [Example 30, N-(2-methylbiphenyl-3-yl)-2-(pyridin-3-ylmethoxy)pyrimidine-4-carboxamide]	100 to 1000
Cc1c(NC(=O)c2cc(-c3ccncc3)c(CNCCO)cn2)cccc1-c1ccccc1 [Example 31, 5-{[(2-hydroxyethyl)amino]methyl}-N-(2-methylbiphenyl-3-yl)-4,4′-bipyridine-2-carboxamide]	10 to 100
Cc1cc(C(=O)Nc2cccc(-c3ccccc3)c2C)ncc1CN1CCCC[C@H]1C(=O)O [Example 32, (2S)-1-[(4-methyl-6-{[(2-methylbiphenyl-3-yl)amino]carbonyl}pyridin-3-yl)methyl]piperidine-2-carboxylic Acid]	≤ 10
Cc1cc(C(=O)Nc2cccc(-c3ccccc3)c2C)ncc1CNCCO [Example 33, 5-{[(2-hydroxyethyl)amino]methyl}-4-methyl-N-(2-methylbiphenyl-3-yl)pyridine-2-carboxamide]	≤ 10
Cc1c(NC(=O)c2cc(OCC3CC3)c(CNCCO)cn2)cccc1-c1ccccc1 [Example 34, 4-(cyclopropylmethoxy)-5-((2-hydroxyethylamino)methyl)-N-(2-methylbiphenyl-3-yl)picolinamide]	10 to 100
COc1cc(C(=O)Nc2cccc(-c3ccccc3)c2C)ncc1CNCCO [Example 35, 5-{[(2-hydroxyethyl)amino]methyl}-4-methoxy-N-(2-methylbiphenyl-3-yl)pyridine-2-carboxamide]	≤ 10
Cc1cnc(C(=O)Nc2cccc(-c3ccccc3)c2C)cc1CN1CCCC[C@H]1C(=O)O [Example 36, (2S)-1-[(5-methyl-2-{[(2-methylbiphenyl-3-yl)amino]carbonyl}pyridin-4-yl)methyl]piperidine-2-carboxylic Acid]	10 to 100
